Experimental data: patent US8551967B2, “Formulations with anti-tumour action” (Gentium SpA, priority 2003, dated 2013)
Read-outs that look alike come from different tables or passages of the source.

Assays:
[1] = test system: mouse EMT-6 mammary carcinoma cells; experiment: Cytotoxicity of alkylating agents with and without DF in EMT-6 cells in culture
[2] = test system: MM-1S human MM cells; assay type: in vivo; settings: for Tumor volume: P<0.05
Description: It was also tested whether DF has in vivo activity in a murine model of human multiple myeloma (MM). Sixty male SCID/NOD mice (6-8 weeks old) were irradiated (450 rads) and, 24 hrs later, injected s.c. with 5×10^6 MM-1S human MM cells. Upon formation of palpable tumors, mice were randomly assigned to 6 cohorts (10 mice each) receiving a) vehicle; b) DF (i.v. 450 mg/kg b.i.d); c) melphalan (MEL) 2.5 mg/kg i.p. once weekly; d) cyclophosphamide (CTX) 50 mg/kg i.p., on days 8, 10, 12, 20, 22 and 24; e) and f) combinations of DF (300 mg/kg i.v.) with MEL or CTX, respectively. Mice were monitored q3 days for body weight, potential toxicity, and electronic caliper-based tumor volumes.
The major endpoints for efficacy were a) tumor volume changes and b) overall survival (time-to-sacrifice, performed when tumor diameters>2 cm).

[3] = test system: bovine endothelial cells; experiment: Cytotoxicity of alkylating agents with and without DF in bovine endothelial cells in culture; assay type: cell-based; settings: DF 50 μg/ml with alkylating agents
From the text: In the following study, DF was examined in combination with antiblastic cytotoxic agents in a model of mouse EMT-6 mammary carcinoma cells and in bovine endothelial cells, in cell cultures and in an experimental model in which rats carrying tumours subjected to high doses of chemotherapy were used.

[4] = test system: MM cells; experiment: In vitro direct cytotoxicity against MM cells; assay type: cell-based; settings: DF alone
[5] = test system: mammary carcinoma 13762; experiment: Tumour growth delay in rats carrying mammary carcinoma 13762; settings: for Days to reach 500 mm^3 / TGD: chemotherapy alone, ip days 8 & 18; for Days to reach 500 mm^3: tumour implanted day 0; for TGD: versus controls
Description: The hepatotoxin monocrotaline and the AA carmustine (BCNU), alone or in association with DF, were tested in vivo in an experimental model which used rats carrying mammary carcinoma 13762.
Table 1. […] The tumour was implanted on day 0 and the chemotherapy was administered on day 8 and day 18.

[6] = test system: Lewis pulmonary carcinoma; experiment: Tumour growth and pulmonary metastases in mice carrying Lewis pulmonary carcinoma; assay type: in vivo; settings: DF added to paclitaxel with or without carboplatin
From the text: The mechanism underlying these effects remains to be explained, but it is possible that the anti-adhesive properties of DF are involved, given the role of cell adhesion in the mechanisms implicated in drug resistance (8, 9).

[7] = monocrotaline or BCNU together with DF
[8] = versus cytotoxic therapy alone, data not presented

| Molecule | Increment in the killing of tumour cells by 4HC ([1]; DF 50 μg/ml before and during, or during and after 4HC, 4HC 50-250 μmol) [logarithmic units] | Effect of DF on cytotoxicity of melphalan ([1]; DF before and during or during and after melphalan) | Effect of DF on cytotoxicity of carboplatin ([1]; DF with carboplatin, compared with thiotepa result) | Tumor volume ([2]; DF 300 mg/kg i.v. with MEL or CTX versus single-agent chemotherapy) | Tumor volume ([2]; DF i.v. 450 mg/kg b.i.d versus control mice) | Tolerability (hemorrhagic complications, body weight) ([2]; DF single agent (i.v. 450 mg/kg b.i.d) or 300 mg/kg i.v. with MEL or CTX, P>0.05) | Overall survival (time-to-sacrifice), Kaplan-Meier ([2]; DF single agent or with MEL or CTX, versus vehicle or MEL- or CTX-treated groups, P<0.001 log-rank) | Increase in cytotoxicity of AAs in association with DF [3] | Direct in vitro cytotoxic effect [4] | Tumour growth delay (TGD), in words ([5]; DF alone versus control, p<0.05, repeat study) | Tumour growth delay (TGD), in words ([5]; DF associated with CTX and BCNU, p<0.04, greater than each agent alone, repeat study) | Additional toxicity in the animals [5, 7] | Tumour growth delay (TGD), in words [5, 7] | Toxicity [6] | Number of pulmonary metastases [6, 8] | Tumour growth (TGD) [6, 8] | Days to reach 500 mm^3 [5] [days] | TGD [5] [days] |
| --- | --- | --- | --- | --- | --- | --- | --- | --- | --- | --- | --- | --- | --- | --- | --- | --- | --- | --- |
| defibrotide [DF] | 2 | did not show any significant effect | A similar result | significantly lower tumor volumes than the respective single-agent cytotoxic chemotherapy | significantly lower tumor volumes than in control mice | well tolerated without hemorrhagic complications or body weight loss | statistically significant prolongation of overall survival | no increase in cytotoxicity | have not shown a significant direct in vitro cytotoxic effect | significant tumour growth delay | particularly significant | no additional toxicity | significant tumour growth delay | without showing an obvious increase in toxicity | reduction | reduction in tumour growth | – | – |
| O=NN(CCCl)C(=O)NCCCl [BCNU, carmustine] | – | – | – | – | – | – | – | – | – | – | – | – | – | – | – | – | 18.0 ± 2.5 | 3.4 |
| C[C@H]1C(=O)O[C@@H]2CCN3CC=C(COC(=O)[C@](C)(O)[C@]1(C)O)[C@H]23 [Monocrotaline, monocrotaline] | – | – | – | – | – | – | – | – | – | – | – | – | – | – | – | – | 15.6 ± 1.0 | 1.0 |
